Patent US20070135515A1, “Method for producing sorbicillactone a” (priority 2004, published 2007)

Tested on: neuronal cells
Test: Intracellular calcium level [Ca2+]i in primary neurons (Fura-2 fluorescence ratio 340/380 nm)
Assay type: cell-based, rat
Excerpt: Material: The same materials as described in Perovic et al. (1998, Mech. Ageing Dev. 101:1-19) were used. Fura-2-acetoxymethylester (Fura-2-AM) was obtained from Molecular Probes (Leiden, The Netherlands), Dulbecco's modified Eagle's Medium with 4.5 g/L glucose (DMEM/HG), L-glutamic acid (L-Glu), and serotonin (5-HT) from Sigma-Aldrich (Taufkirchen, Germany) and the antibodies mouse-anti-neurofilament (68 kDa) and mouse-anti-glial-fibrillary-acidic-protein (GFAP) from Roche Diagnostics (Mannheim, Germany). Sorbicillactone A of the batch: 2208/2a was used.
Primary neurons: The cortical cell culture was produced from the brains of 17-18 day-old rat embryos, according to a modified procedure [Freshney (1987) Culture of specific cell types. In: Culture of Animal Cells. A Manual of Basic Technique, A. R. Liss, New York, S. 257-288; Perovic et al. (1994) Eur. J. Pharmacol. (Mol. Pharmacol. Sec.) 288:27-33]. After the isolation, the cerebral-hemispheres were put into Hank's Balanced Salt Solution (HBSS) without Ca^2+ and Mg^2+, and the neuronal cells were subsequently dissociated in HBSS using 0.025% (w/v) trypsin (10 min.; 37° C.). The proteolytic reaction was stopped with 10% (v/v) foetal calf serum (FCS). The single-cell suspensions were centrifuged, and the resulting pellet was taken up into Dulbecco's modified Eagles's Medium with 4.5 g/L glucose (DMEM/HG) (contains 2 mM L-glutamine, 100 mU/L insulin, and 10% (v/v) FCS). The cells were plated in a chamber with poly-L-lysine (5 μg/mL, 300 μl/cm^2) in a cell density of 2.0×10^5 cells/cm^2. After two days the DMEM/HG/10%-FCS-medium was removed and replaced with DMEM/HG/serum-free medium. Two weeks after the isolation, the immune staining took place with anti-neurofilament (68 kDa) as a marker for neurons, and anti-GFAP as a marker for glial cells. The cultures contained >80% neurons; the residual 20% were GFAP-positive cells, mainly astrocytes (Ushijima et al. (1995) Eur. J. Neurosci. 7:1353-9). The neurons were held in an atmosphere of 95% air and 5% CO2 at 37° C.
Loading of neurons with Fura-2-AM: The intracellular Ca^2+-concentration ([Ca^2+]i) was determined by fluorescence measurements. The ratio of the absorption of the Ca^2+-indicator dye Fura-2-AM at 340 and 380 nm (Grynkiewicz et al. (1985) J. Biol. Chem. 260:3440-50) was decisive. The neurons were loaded with 6 μM Fura-2-AM in DMEM/HG/serum-free medium (supplemented with 1% (w/v) bovine serum albumin) at 37° C. for 60 min. After incubation, the cells were washed two times with medium, and further incubated for 45 min at 37° C.
Calcium-calibration curve: A calcium-calibration curve was produced according to the methods of Grynkiewicz et al. (1985, J. Biol. Chem. 260:3440-50). Fluorescence pictures were obtained for each buffer at 340 and 380 nm. The quotient from both fluorescence spectra (340/380 nm) was calculated, and depicted as a calibration curve. The quotient (340/380 nm [ratio-value]) of 1.0 corresponds to 228 nM [Ca^2+]i.
Changes of the calcium level in neurons: In all experimental settings, the cells were first loaded with Fura-2-AM, and subsequently stimulated with different substances (in Locke's solution; 154 mM NaCl; 5.6 mM KCl; 3.6 mM NaHCO3; 5.6 mM glucose, and 10 mM Hepes; pH 7.4; without CaCl2). Sorbicillactone A was dissolved in a concentration of 10 mg/mL in 100% (v/v) DMSO, and stored at −20° C. In the first setting, the neurons were stimulated for 5 min with 0.1% (v/v) DMSO (control); after 10 min 200 μM L-glutamic acid (L-Glu), 200 μM serotonin (5-HT), and 2.5 mM CaCl2 were added to the cells. In a second setting, the effect of L-Glu, 5-HT, and 2.5 mM CaCl2 on the calcium level of pre-incubated neurons (each 5 min with 10 μg/mL sorbicillactone A) was tested. In all experiments, the [Ca^2+]i-level was measured for at least 20-25 min. […]

C/C=C/C=C/C(O)=C1/C(=O)C(C)=C(O)[C@@]2(C)OC(=O)[C@@](C)(NC(=O)/C=C/C(=O)O)[C@@H]12 [sorbicillactone A]
effect on [Ca2+]i in neuronal cells (10 μg/mL sorbicillactone A alone): nearly no effect | reduction in the [Ca2+]i-level (pre-incubation 5 min with 10 μg/mL, then 200 μM L-Glu and 2.5 mM CaCl2, p<0.001, FIG. 1A): 46.7% | reduction of the free calcium concentration compared to the control (pre-incubation with 10 μg/mL, then 200 μM 5-HT and 2.5 mM CaCl2, FIG. 1B): 77.6%
